IC50 data for 23 compounds are collected here from US8703953B2, “Aryl ether-base kinase inhibitors” (Bristol-Myers Squibb Company, priority 2012, dated 2014).

The target in one assay is T1, AAK1 (full length human) (Homo sapiens, UniProt Q2M2I8).
T1 construct: HA; expressed in transfected cells; host or cells: HEK293F
The assay can be described thus: HEK281 Cell-Based Assay (HEK293F cells transfected with AAK1 and AP2M1; phospho-mu2 Western blot). As to conditions: 3 h. The method, then: HEK293F cells were cultured in media containing DMEM (Gibco, cat. #11965), 10% FBS (SAFC Biosciences, cat. #12103C), 1× GPS (glutamine, penicillin and streptomycin). On day one, cells were plated on a 10 cm dish so that they are ˜80% confluent at time of transfection. Roughly 12 million cells were in a 10 cm dish at time of transfection. On day two, each dish was transfected with 48 ug DNA and 144 μl Lipofectamine 2000 (Invitrogen, cat. #11668-019). The DNA was comprised of a mixture (per 10 cm dish) containing 3 ug AAK1/HA/pIRES (full length human, NCBI accession no. NP_055726.2), 45 μg Flag/AP2MI/pcDNA (full length human), and 1.5 ml OPTI-MEM. The Lipofectamine 2000 is made up of a mixture (per 10 cm dish) containing 144 μl Lipofectamine 2000 and 1.5 ml OPTI-MEM. Each mixture was transferred to individual 15 ml tubes and incubated at RT for 5 minutes, and then the two mixes were combined and incubated at RT for 20 minutes. Growth media was then aspirated from each 10 cm plate and replaced with 10 ml of DMEM+10% FBS (no GPS). Finally, 3 ml DNA/Lipofectamine mix was added to each 10 cm dish and mix gently followed by incubate of plate overnight at 37° C. and 5% CO2.
On day three, compounds were diluted in 100% DMSO at 1000× final concentration, followed by 3-fold serial dilutions for a total of 5 concentrations tested. Four compounds were tested per 10 cm dish. One ul of each compound dilution was then pipetted into a deep-well, 96-well plate, followed by addition of 500 μl DMEM+0.5% FBS into each well for a 2× final concentration of each compound. Cells were resuspended in a 10 cm dish by simple pipetting (HEK293 cells come off the plate that easy at this point) and then transferred to a 50 ml conical tube and pelleted by centrifugation at 1000 rpm for 5 min. Cell pellets were then resuspended in 2.75 ml DMEM+0.5% FBS per 10 cm dish and 100 μl of cell suspension transferred into each well of 96-well TC plate. Finally, 100 μl of 2× compound diluted in DMEM+0.5% FBS was then added into wells containing cell suspension for a 1× final concentration. Plates were then incubated at 37° C. and 5% CO2 for 3 hours followed by transferring of cell suspensions from each well into 12-tube PCR strips. The PCR strips were spun in a tip rack at 1000 rpm for 5 minutes to pellet cells and media was then removed by pipetting without disturbing the cell pellet.
To prepare for Western Blot analysis, cell pellets were resuspend in 40 ul 1× LDS-PAGE sample buffer (Invitrogen, cat. #NP0008)+2× Halt phophatase and protease inhibitor cocktail (Thermo Scientific, cat. #1861284), followed by sonicating each with microtip sonicator set at 5 for 8-10 seconds. Five ul of 10× NuPage Sample Reducing Agent (with […]) was to each sample followed by heat denaturing at 70C for 10 min on PCR machine. A total of 10 μl per sample was loaded into each lane of a 4-20% Tris-Glycine Criterion 26-well gel (Biorad, cat. #345-0034) for the phospho-mu2 blot and 10 μl per lane in a 4-12% Bis-Tris (+MES buffer) NuPAGE 26-well gel (Invitrogen, cat. #WG1403BX10) for the mu2 blot. For controls, 2 ng of phospho-mu2 or 20 ng mu2/Flag proteins were loaded in the last well of each gel. After SDS-PAGE, samples on each gel were transferred to PVDF membrane using an iBlot and membranes were blocked for one hour in TBST+5% milk, followed by wash 3× for 5-10 min with TBST. Criterion gels were probed with rabbit anti-phospho-mu2 (1:5000; a rabbit polyclonal antibody produced by New England Peptide and affinity purified at Lexicon) in TBST+5% BSA, whereas, NuPAGE gels were probed with mouse anti-Flag (1:500; Sigma, cat. #F1804) in TBST+5% milk, and these primary antibodies were incubated overnight at 4° C. on a rocker. […]
(A western blot detects proteins with antibodies after separation by electrophoresis.)

The target in the next assay is T2, GST-Xa-hAAK1 (Homo sapiens, UniProt Q2M2I8).
T2 construct: made in house
The assay is described as follows: AAK1 Kinase Assay (Caliper LabChip, fluoresceinated peptide substrate). As to conditions: ATP 22 μM. The assay is classed as biochemical. How it is done: The assays were performed in U-bottom 384-well plates. The final assay volume was 30 μl prepared from 15 μl additions of enzyme and substrates (fluoresceinated peptide (5-FAM)-Aha-[…]-NH2 and ATP) and test compounds in assay buffer (10 mM Tris-HCL pH 7.4, 10 mM MgCl2, 0.01% Tween-20 and 1.0 mM DTT). The reactions were initiated by the combination of bacterially expressed, GST-Xa-hAAK1 with substrates and test compounds. The reactions were incubated at room temperature for 3 hours and terminated by adding 60 μl of 35 mM EDTA buffer to each sample. The reactions were analyzed on the Caliper LabChip 3000 (Caliper, Hopkinton, Mass.) by electrophoretic separation of the fluorescent substrate and phosphorylated product. […] The final concentration of reagents in the assays are ATP, 22 μM; (5-FAM)-Aha-[…]-NH2, 1.5 μM; GST-Xa-hAAK1, 3.5 nM; and DMSO, 1.6%. Dose response curves were generated to determine the concentration required inhibiting 50% of kinase activity (IC50). Compounds were dissolved at 10 mM in dimethylsulfoxide (DMSO) and evaluated at eleven concentrations. IC50 values were derived by non-linear regression analysis.

T2 sequence (Q2M2I8 whole entry): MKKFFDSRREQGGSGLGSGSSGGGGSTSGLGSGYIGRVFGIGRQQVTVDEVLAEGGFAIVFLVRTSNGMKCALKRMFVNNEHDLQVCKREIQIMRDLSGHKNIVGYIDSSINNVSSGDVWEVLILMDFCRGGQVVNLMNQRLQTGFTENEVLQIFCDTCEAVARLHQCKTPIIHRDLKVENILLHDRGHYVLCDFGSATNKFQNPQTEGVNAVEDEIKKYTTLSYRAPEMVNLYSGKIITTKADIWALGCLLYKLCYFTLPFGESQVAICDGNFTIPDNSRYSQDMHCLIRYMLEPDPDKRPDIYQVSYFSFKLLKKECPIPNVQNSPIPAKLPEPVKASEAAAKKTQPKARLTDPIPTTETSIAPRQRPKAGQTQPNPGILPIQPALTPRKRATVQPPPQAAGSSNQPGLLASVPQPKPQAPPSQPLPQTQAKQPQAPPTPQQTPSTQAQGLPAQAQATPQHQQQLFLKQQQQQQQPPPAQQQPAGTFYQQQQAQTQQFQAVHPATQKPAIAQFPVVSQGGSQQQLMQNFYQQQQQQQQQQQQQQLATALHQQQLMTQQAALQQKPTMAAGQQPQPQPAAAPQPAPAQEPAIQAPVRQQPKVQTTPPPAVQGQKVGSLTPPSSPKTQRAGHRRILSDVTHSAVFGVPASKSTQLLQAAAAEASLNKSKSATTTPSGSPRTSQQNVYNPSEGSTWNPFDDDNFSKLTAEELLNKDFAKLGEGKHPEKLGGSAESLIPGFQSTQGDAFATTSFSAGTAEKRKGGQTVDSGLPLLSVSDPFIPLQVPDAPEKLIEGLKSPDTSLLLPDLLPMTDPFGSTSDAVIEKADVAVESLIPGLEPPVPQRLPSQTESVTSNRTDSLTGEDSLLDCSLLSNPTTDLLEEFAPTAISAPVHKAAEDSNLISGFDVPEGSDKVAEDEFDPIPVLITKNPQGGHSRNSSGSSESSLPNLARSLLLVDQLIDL
T1 sequence (Q2M2I8 whole entry): as above

The term IC50 denotes the midpoint of a concentration-inhibition curve. For the compound `CC(C)C[C@H](N)COc1cc2c(cc1Cl)-c1ccncc1C(C(F)(F)F)O2` (mixture of isomers) [Example 27, (2S)-1-((9-chloro-5-(trifluoromethyl)-5H-chromeno[3,4-c]pyridin-8-yl)oxy)-4-methylpentan-2-amine], the IC50 against AAK1 (full length human) (listed as IC50 ranges) and at GST-Xa-hAAK1 (listed as IC50 ranges) was 0.001 to 0.01 µM each time.

Regarding `CCC1Oc2cc(OC[C@@H](N)CC(C)C)ccc2-c2ccncc21` (single isomer, unassigned) [Example 10a], the IC50 at AAK1 (full length human) (listed as IC50 ranges) and at GST-Xa-hAAK1 (listed as IC50 ranges) was 0.01 to 0.1 µM throughout.

As for `CC1Oc2cc(OC[C@@H](N)CC3CCCC3)ccc2-c2ccncc21` (mixture of isomers) [Example 24, (2S)-1-cyclopentyl-3-(5-methyl-5H-chromeno[3,4-c]pyridin-8-yloxy)propan-2-amine], the IC50 on AAK1 (full length human) (listed as IC50 ranges) and at GST-Xa-hAAK1 (listed as IC50 ranges) was 0.01 to 0.1 µM throughout.

Regarding `CC(C)C[C@@H](N)COc1ccc2c(c1)OC(C)c1cnccc1-2` (single isomer, unassigned) [Example 7a], the IC50 against AAK1 (full length human) (numeric values) is more than 0.3 µM; at GST-Xa-hAAK1 (numeric values) it was 0.081 µM.

As to `CC(C)C[C@H](N)COc1cc2c(cc1C#N)-c1ccncc1C(C)O2` (mixture of isomers) [Example 22, 8-((S)-2-amino-4-methylpentyloxy)-5-methyl-5H-chromeno[3,4-c]pyridine-9-carbonitrile], the IC50 on AAK1 (full length human) (listed as IC50 ranges) is less than 0.001 µM; at GST-Xa-hAAK1 (listed as IC50 ranges), 0.001 to 0.01 µM.

In the case of `CC(=O)Nc1nccc2c1COc1cc(OC[C@@H](N)CC(C)C)ccc1-2` [Example 12, (S)-N-(8-(2-amino-4-methylpentyloxy)-5H-chromeno[3,4-c]pyridin-4-yl)acetamide], the IC50 against AAK1 (full length human) (listed as IC50 ranges) and at GST-Xa-hAAK1 (listed as IC50 ranges) was 0.01 to 0.1 µM throughout.

As for `CC(C)C[C@H](N)COc1cc2c(cc1Br)-c1ccncc1CO2` [Example 14, (S)-1-(9-bromo-5H-chromeno[3,4-c]pyridin-8-yloxy)-4-methylpentan-2-amine], the IC50 at AAK1 (full length human) (listed as IC50 ranges) and at GST-Xa-hAAK1 (listed as IC50 ranges) was 0.001 to 0.01 µM each time.

For `CC(C)C[C@H](N)COc1ccc2c(c1)OCc1cnc(N)cc1-2` [Example 33, (S)-8-(2-amino-4-methylpentyloxy)-5H-chromeno[3,4-c]pyridin-2-amine], the concentration for half-maximal inhibition (IC50) against AAK1 (full length human) (listed as IC50 ranges) and on GST-Xa-hAAK1 (listed as IC50 ranges) was 0.01 to 0.1 µM in each case.

Regarding `CC(C)C[C@H](N)COc1ccc2c(c1)OC(C)c1c-2ccnc1N` (stereo partly drawn) [Example 15, 8-(((S)-2-amino-4-methylpentyl)oxy)-5-methyl-5H-chromeno[3,4-c]pyridin-4-amine], the IC50 against AAK1 (full length human) (listed as IC50 ranges) and on GST-Xa-hAAK1 (listed as IC50 ranges) was 0.001 to 0.01 µM throughout.

For `CC(=O)Nc1cc2c(cn1)COc1cc(OC[C@@H](N)CC(C)C)ccc1-2` [Example 18, (S)-N-(8-(2-amino-4-methylpentyloxy)-5H-chromeno[3,4-c]pyridin-2-yl)acetamide], the IC50 against AAK1 (full length human) (listed as IC50 ranges) is 0.01 to 0.1 µM; at GST-Xa-hAAK1 (listed as IC50 ranges) it was 0.001 to 0.01 µM.

For `COC(=O)Nc1cc2c(cn1)COc1cc(OC[C@@H](N)CC(C)C)ccc1-2` [Example 43, (S)-methyl 8-(2-amino-4-methylpentyloxy)-5H-chromeno[3,4-c]pyridin-2-ylcarbamate], the IC50 at AAK1 (full length human) (listed as IC50 ranges) and at GST-Xa-hAAK1 (listed as IC50 ranges) was 0.001 to 0.01 µM each time.

For `CC(C)C[C@H](N)COc1ccc2c(c1)OC(C)c1cnccc1-2` (single isomer, unassigned) [Example 6b], the IC50 amounted to 0.0043 µM against AAK1 (full length human) (numeric values) and 0.0091 µM at GST-Xa-hAAK1 (numeric values).

On to `CC(C)C[C@H](N)COc1ccc2c(c1)OC(C1CC1)c1cnccc1-2` (single isomer, unassigned) [Example 8b], for which the IC50 against AAK1 (full length human) (listed as IC50 ranges) and at GST-Xa-hAAK1 (listed as IC50 ranges) was 0.01 to 0.1 µM throughout.

With `CC(C)C[C@H](N)COc1ccc2c(c1)OCc1c-2ccnc1N` [Example 13, (S)-8-((2-amino-4-methylpentyl)oxy)-5H-chromeno[3,4-c]pyridin-4-amine], the IC50 on AAK1 (full length human) (listed as IC50 ranges) and at GST-Xa-hAAK1 (listed as IC50 ranges) was 0.001 to 0.01 µM each time.

Take `CC(C)C[C@H](N)COc1ccc2c(c1)OCc1cnccc1-2` [Example 5, (S)-1-(5H-chromeno[3,4-c]pyridin-8-yloxy)-4-methylpentan-2-amine]: the figures for the IC50 at AAK1 (full length human) (numeric values) and at GST-Xa-hAAK1 (numeric values) were 0.0084 µM and 0.0033 µM, respectively.

As for `CC(C)C[C@H](N)COc1ccc2c(c1)OCc1cncc(F)c1-2` [Example 16, (S)-1-((1-fluoro-5H-chromeno[3,4-c]pyridin-8-yl)oxy)-4-methylpentan-2-amine], the half-inhibitory concentration (IC50) against AAK1 (full length human) (listed as IC50 ranges) and at GST-Xa-hAAK1 (listed as IC50 ranges) was 0.001 to 0.01 µM throughout.

As to `CCC1Oc2cc(OC[C@@H](N)CC(C)C)ccc2-c2ccncc21` (mixture of isomers) [Example 10, (2S)-1-(5-ethyl-5H-chromeno[3,4-c]pyridin-8-yloxy)-4-methylpentan-2-amine], the 50% inhibitory concentration (IC50) on AAK1 (full length human) (listed as IC50 ranges) and at GST-Xa-hAAK1 (listed as IC50 ranges) was 0.01 to 0.1 µM throughout.

Take `CC(C)C[C@H](N)COc1ccc2c(c1)OC(C1CC1)c1cnccc1-2` (mixture of isomers) [Example 8, (2S)-1-(5-cyclopropyl-5H-chromeno[3,4-c]-pyridin-8-yloxy)-4-methylpentan-2-amine]: the IC50 at AAK1 (full length human) (listed as IC50 ranges) and at GST-Xa-hAAK1 (listed as IC50 ranges) was 0.01 to 0.1 µM throughout.

For `COc1c(OC[C@@H](N)CC(C)C)ccc2c1OCc1cnc(NC(C)=O)cc1-2` [Example 37, (S)-N-(8-((2-amino-4-methylpentyl)oxy)-7-methoxy-5H-chromeno[3,4-c]pyridin-2-yl)acetamide], the values for the IC50 against AAK1 (full length human) (listed as IC50 ranges) and on GST-Xa-hAAK1 (listed as IC50 ranges) were 0.001 to 0.01 µM and 0.01 to 0.1 µM, respectively.

On to `CC(=O)Nc1cc2c(cn1)COc1cc(OCC(N)CCC(F)(F)F)ccc1-2` (racemic) [Example 36, N-(8-((2-amino-5,5,5-trifluoropentyl)oxy)-5H-chromeno[3,4-c]pyridin-2-yl)acetamide], for which the IC50 against AAK1 (full length human) (listed as IC50 ranges) lay within 0.001 to 0.01 µM; at GST-Xa-hAAK1 (listed as IC50 ranges) it was 0.01 to 0.1 µM.

Regarding `CC(=O)Nc1cc2c(cn1)COc1cc(OC[C@@H](N)CC(C)C)c(Cl)cc1-2` [Example 32, (S)-N-(8-((2-amino-4-methylpentyl)oxy)-9-chloro-5H-chromeno[3,4-c]pyridin-2-yl)acetamide], the figures for the half-maximal inhibitory concentration (IC50) against AAK1 (full length human) (numeric values) and on GST-Xa-hAAK1 (numeric values) were more than 0.1 µM and 0.066 µM, respectively.

Consider `CC(C)C[C@@H](N)COc1ccc2c(c1)OC(C1CC1)c1cnccc1-2` (single isomer, unassigned) [Example 9a], for which the IC50 at AAK1 (full length human) (numeric values) was more than 0.3 µM; at GST-Xa-hAAK1 (listed as IC50 ranges), 0.1 to 1 µM.

As for `NC(CCC(F)(F)F)COc1ccc2c(c1)OCc1cnccc1-2` (racemic) [Example 17, 1-(5H-chromeno[3,4-c]pyridin-8-yloxy)-5,5,5-trifluoropentan-2-amine], the IC50 at AAK1 (full length human) (listed as IC50 ranges) and on GST-Xa-hAAK1 (listed as IC50 ranges) was 0.01 to 0.1 µM in each case.
